Source: patent US6461856B2 (priority 1999, dated 2002)

Test system: F420-dependent dehydrogenase (ORF 9)
Format: biochemical, Rhodococcus erythropolis HL PM-1

## O=[N+]([O-])c1ccc(O)c([N+](=O)[O-])c1 [DNP, 2,4-dinitrophenol]
  reduction of the substrate to its Meisenheimer complex upon addition of ORF 9 extract: reduces
